In experiment [1] the test system is Bz BS of GABA(A) receptors. The settings on record: cited from earlier work.
The target of experiment [2] is T1, α2β3γ2 GABAA/BzR (Homo sapiens, UniProt P18507+P47869). Set-up: expressed in transfected cells; host or cells: LTK cells (given for XLi-093 only). The settings on record: cited from earlier work.
The target of experiment [3] is T2, α3β3γ2 GABAA/BzR (Homo sapiens, UniProt P18507+P34903). Also on record: expressed in transfected cells; host or cells: LTK cells (given for XLi-093 only). The settings on record: cited from earlier work.
For experiment [4], the target named is T3, α5β3γ2 GABAA/BzR (Homo sapiens, UniProt P18507+P31644). Set-up: expressed in transfected cells; host or cells: LTK cells (given for XLi-093 only). The settings on record: cited from earlier work.
Experiment [5] has as its target T4, α1β3γ2 GABAA/BzR (Homo sapiens, UniProt P14867+P18507). Also on record: expressed in transfected cells; host or cells: LTK cells (given for XLi-093 only). The settings on record: cited from earlier work.
Experiment [6] addresses T5, α6β3γ2 GABAA/BzR (Homo sapiens, UniProt P18507+Q16445). Also on record: expressed in transfected cells; host or cells: LTK cells (given for XLi-093 only). The settings on record: cited from earlier work.
For experiment [7], the target named is T3, α5β3γ2 GABAA/BzR. In words: Competition binding to HEK cell membranes, α5β3γ2. Set-up: expressed in transfected cells.
Experiment [8] has as its target T1, α2β3γ2 GABAA/BzR. In words: Competition binding to HEK cell membranes, α2β3γ2. Also on record: expressed in transfected cells.
Experiment [9] has as its target T2, α3β3γ2 GABAA/BzR. The experiment in a line: Competition binding to HEK cell membranes, α3β3γ2. Set-up: expressed in transfected cells.
The target in experiment [10] is T5, α6β3γ2 GABAA/BzR. In words: Competition binding to HEK cell membranes, α6β3γ2. Also on record: expressed in transfected cells.
The target of experiment [11] is T4, α1β3γ2 GABAA/BzR. The experiment in a line: Competition binding to HEK cell membranes, α1β3γ2. Also on record: expressed in transfected cells.
For the next experiment, the target named is T6, α4β3γ2 GABAA/BzR (Homo sapiens, UniProt P18507+P48169).
T6 construct: expressed in transfected cells; host or cells: LTK cells (given for XLi-093 only)
In words: biochemical. Format: binding.

pKi: −log10 of the molar value. Where two headings read alike, the source gives them in different places.

As for `CN1C(=O)CN=C(c2ccccc2F)c2cc([N+](=O)[O-])ccc21` [FLUNITRAZEPAM, flunitrazepam], the modulation result in [1] was “agonist”.
In the case of `CCOCc1ncn2c1CN(C)C(=O)c1cc(Cl)ccc1-2` [compound 6], the pKi is less than 6.52 on α2β3γ2 GABAA/BzR [2] (Figure 4, read-out: Ki α2); less than 6.52 on α3β3γ2 GABAA/BzR [3] (Figure 4, read-out: Ki α3); 7.08 on α5β3γ2 GABAA/BzR [4] (Figure 4, read-out: Ki α5); less than 6.52 on α1β3γ2 GABAA/BzR [5] (Figure 4, read-out: Ki α1); less than 6.52 at α6β3γ2 GABAA/BzR [6] (Figure 4, read-out: Ki α6).
For `CCc1c(C(=O)OC)ncc2[nH]c3cc(OC)c(OC)cc3c12` [DMCM, reference compound], the negative logarithm of the Ki (pKi) is 8.98 at α5β3γ2 GABAA/BzR [7] (read-out: Ki α5); 8.08 at α2β3γ2 GABAA/BzR [8] (read-out: Ki α2); 8.40 at α3β3γ2 GABAA/BzR [9] (read-out: Ki α3); 6.87 on α6β3γ2 GABAA/BzR [10] (read-out: Ki α6); 8.24 at α1β3γ2 GABAA/BzR [11] (read-out: Ki α1). For the same compound, the modulation entry in [1] was “inverse agonist”.
As to `CC(C)(C)OC(=O)c1cc2c(cn1)[nH]c1ccc(-c3ccco3)cc12` [WYS13], the negative-log Ki (pKi) was 6.79 at α5β3γ2 GABAA/BzR [7] (read-out: Ki α5); 7.89 at α2β3γ2 GABAA/BzR [8] (read-out: Ki α2); 7.89 at α2β3γ2 GABAA/BzR [2] (read-out: Affinity Ki α2); 7.56 on α3β3γ2 GABAA/BzR [9] (read-out: Ki α3); 7.56 on α3β3γ2 GABAA/BzR [3] (read-out: Affinity Ki α3); 5.30 on α6β3γ2 GABAA/BzR [10] (read-out: Ki α6). In addition, the pKi at α5β3γ2 GABAA/BzR [4] (read-out: Affinity Ki α5) is 6.79; at α1β3γ2 GABAA/BzR [5] (read-out: Affinity Ki α1), 8.62; at α6β3γ2 GABAA/BzR [6] (read-out: Affinity Ki α6) it was 5.30; on α1β3γ2 GABAA/BzR [11] (read-out: Ki α1) it was 8.61.
In the case of `CC(C)(C)OC(=O)c1cc2c(cn1)[nH]c1ccc(-c3ccccc3)cc12` [WYS15], the negative-log Ki (pKi) was 7.12 at α5β3γ2 GABAA/BzR [7] (Ki α5); 7.12 at α5β3γ2 GABAA/BzR [7] (read-out: Ki α5); 8.69 on α2β3γ2 GABAA/BzR [8] (Ki α2); 8.69 at α2β3γ2 GABAA/BzR [8] (read-out: Ki α2); 8.69 at α2β3γ2 GABAA/BzR [2] (read-out: Affinity Ki α2); 7.35 at α3β3γ2 GABAA/BzR [9] (Ki α3). Further, the negative logarithm of the Ki (pKi) at α3β3γ2 GABAA/BzR [9] (read-out: Ki α3) was 7.35; at α3β3γ2 GABAA/BzR [3] (read-out: Affinity Ki α3) it was 7.35; at α6β3γ2 GABAA/BzR [10] (Ki α6) it was 5.30; at α5β3γ2 GABAA/BzR [4] (read-out: Affinity Ki α5), 7.12; on α1β3γ2 GABAA/BzR [5] (read-out: Affinity Ki α1) it was 8.44; at α1β3γ2 GABAA/BzR [11] (Ki α1), 8.44. Besides, the pKi at α1β3γ2 GABAA/BzR [11] (read-out: Ki α1) is 8.44.
As to `CCOC(=O)c1ncn2c1CN(C)C(=O)c1cc(F)ccc1-2` [Ro15-1788], the modulation entry in experiment [1] was “antagonist”.
For `C#Cc1ccc2c(c1)C(=O)N1CCC[C@H]1c1c(-c3nc(C)no3)ncn1-2` [compound 7], the negative-log Ki (pKi) was 8.43 at α5β3γ2 GABAA/BzR [4] (Figure 4, read-out: Ki α5) and less than 7.05 on α1β3γ2 GABAA/BzR [5] (Figure 4, read-out: Ki α1).
For `C#Cc1ccc2[nH]c3cnc(C(=O)OCC(F)(F)F)cc3c2c1` [WY-B-26-2], the pKi was 6.91 on α5β3γ2 GABAA/BzR [7] (Ki α5); 7.35 at α2β3γ2 GABAA/BzR [8] (Ki α2); 7.35 at α2β3γ2 GABAA/BzR [2] (read-out: Affinity Ki α2); 7.37 at α3β3γ2 GABAA/BzR [9] (Ki α3); 5.70 at α4β3γ2 GABAA/BzR; 7.37 on α3β3γ2 GABAA/BzR [3] (read-out: Affinity Ki α3). The pKi is 5.70 at α6β3γ2 GABAA/BzR [10] (Ki α6), 6.91 on α5β3γ2 GABAA/BzR [4] (read-out: Affinity Ki α5), 8.35 on α1β3γ2 GABAA/BzR [5] (read-out: Affinity Ki α1) and 8.35 at α1β3γ2 GABAA/BzR [11] (Ki α1).
Turning to `CC(C)OC(=O)c1ncn2c1[C@@H]1CCCN1C(=O)c1cc(Br)ccc1-2` [MMB-II-90], the negative logarithm of the Ki (pKi) on α5β3γ2 GABAA/BzR [7] (read-out: Ki α5) is 9.60; on α2β3γ2 GABAA/BzR [8] (read-out: Ki α2), 7.62; on α3β3γ2 GABAA/BzR [9] (read-out: Ki α3) it was 8.24; on α4β3γ2 GABAA/BzR (read-out: Ki α4) it was 8.05; at α6β3γ2 GABAA/BzR [10] (read-out: Ki α6) it was 7.44; at α1β3γ2 GABAA/BzR [11] (read-out: Ki α1) it was 7.70.
As to `COc1ccc2c(c1)C(=O)N1CCCC1c1c(C(=O)OCC(C)C)ncn1-2` (stereo not drawn) [CM-E11], the negative logarithm of the Ki (pKi) on α5β3γ2 GABAA/BzR [7] (read-out: Ki α5) is 7.85; at α2β3γ2 GABAA/BzR [8] (read-out: Ki α2), 6.51; on α3β3γ2 GABAA/BzR [9] (read-out: Ki α3), 6.79; at α4β3γ2 GABAA/BzR (read-out: Ki α4) it was 6.40; on α6β3γ2 GABAA/BzR [10] (read-out: Ki α6), 6.12; on α1β3γ2 GABAA/BzR [11] (read-out: Ki α1), 6.48.
On to `Cc1nnc2ccc(-c3cccc(C(F)(F)F)c3)nn12` [CL-218,872], for which the modulation entry in experiment [1] (Supplement Table 1) is reported as “partial agonist”.
On to `CCCC(=O)c1cc2c(cn1)[nH]c1ccc(F)cc12` [CM-A57], for which the pKi at α5β3γ2 GABAA/BzR [7] (read-out: Ki α5) is 6.60; at α2β3γ2 GABAA/BzR [8] (read-out: Ki α2), 7.57; at α2β3γ2 GABAA/BzR [2] (read-out: Affinity Ki α2), 7.57; at α3β3γ2 GABAA/BzR [9] (read-out: Ki α3) it was 7.40; on α3β3γ2 GABAA/BzR [3] (read-out: Affinity Ki α3) it was 7.40; at α6β3γ2 GABAA/BzR [10] (read-out: Ki α6), 6.00. The pKi at α5β3γ2 GABAA/BzR [4] (read-out: Affinity Ki α5) is 6.60; at α1β3γ2 GABAA/BzR [5] (read-out: Affinity Ki α1), 8.43; on α6β3γ2 GABAA/BzR [6] (read-out: Affinity Ki α6) it was less than 5.60; at α1β3γ2 GABAA/BzR [11] (read-out: Ki α1) it was 8.43.
As for `Cc1ncc2n1-c1ccc(Cl)cc1C(c1ccccc1F)=NC2` [midazolam], in experiment [1] (Supplement Table 1), the modulation result is reported as “agonist”.

These data come from PMC4657098, “A Review of the Updated Pharmacophore for the Alpha 5 GABA(A) Benzodiazepine Receptor Model” (International Journal of Medicinal Chemistry, 2015).
